IC50, Tm and Kd data for one molecule are collected here from ChEMBL document CHEMBL1143089, “Structure-based design and subsequent optimization of 2-tolyl-(1,2,3-triazol-1-yl-4-carboxamide) inhibitors of p38 MAP kinase” (Bioorg Med Chem Lett, 2008).

A word on the pIC50: it is −log10 of the IC50, conventionally taken in molar units. Usually Tm stands for the temperature at the midpoint of the melting transition. Broadly, the pKd is −log10 of the Kd, conventionally taken in molar units.

In one test the test system is Blood. The experiment in a line: Inhibition of LPS-stimulated TNFalpha production in human whole blood. The class given is functional, tissue-based.
Test [1] is described as follows: Binding affinity to mitogen-activated protein kinase p38 by thermal denaturation assay.
Test [2] in a line: Binding affinity to mitogen-activated protein kinase p38.
A further test deals with THP-1. Kind of test: Inhibition of LPS-stimulated TNFalpha production in human THP1 cells. The test is classed as functional, cell-based.

pIC50, pKd: −log10 of the molar value.

On to `CCOC(=O)C1=CN(c2cc(C(=O)Nc3cc(C(C)(C)C)cc(NS(C)(=O)=O)c3OC)ccc2C)NN1`, for which the results for the pIC50 in the test on Blood and in the test on THP-1 were 5.05 and < 5.30, respectively. In addition, in test [1], the midpoint of thermal melting (Tm) stood at 56.2 °C. This molecule showed a pKd in test [2] of 8.10.
